Experimental data reported in publication PMC12669732, “Synergistic targeting of cancer cells through simultaneous inhibition of key metabolic enzymes” (Cell Death and Differentiation, 2025).

What was measured:
complex I = biological target: T1, complex I (Homo sapiens, UniProt O75251+O75306+P03886); test: spectrophotometric NADH oxidation, rotenone-sensitive complex I activity; assay type: biochemical; settings: 120 uM NADH, 20 uM oxidized cytochrome c, pH 7.5, 37 °C; Q-site (ubiquinone reduction site), no effect at NADH site
T1 construct: gene NDUFS2; native respiratory complex I (whole multi-subunit complex)
T1 sequence (O75306 34-463): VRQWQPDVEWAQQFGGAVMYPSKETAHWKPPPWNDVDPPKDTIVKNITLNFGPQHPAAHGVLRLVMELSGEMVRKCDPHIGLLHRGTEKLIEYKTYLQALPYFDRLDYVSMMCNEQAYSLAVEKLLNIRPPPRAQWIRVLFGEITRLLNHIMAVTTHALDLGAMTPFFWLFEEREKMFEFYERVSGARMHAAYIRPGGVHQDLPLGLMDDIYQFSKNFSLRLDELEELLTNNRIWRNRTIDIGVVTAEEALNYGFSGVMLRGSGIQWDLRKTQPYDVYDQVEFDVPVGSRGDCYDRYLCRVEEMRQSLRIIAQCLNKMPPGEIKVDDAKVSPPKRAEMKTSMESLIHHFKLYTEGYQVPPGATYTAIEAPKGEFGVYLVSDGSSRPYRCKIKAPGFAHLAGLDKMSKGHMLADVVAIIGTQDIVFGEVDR
T1 sequence (O75251 39-213): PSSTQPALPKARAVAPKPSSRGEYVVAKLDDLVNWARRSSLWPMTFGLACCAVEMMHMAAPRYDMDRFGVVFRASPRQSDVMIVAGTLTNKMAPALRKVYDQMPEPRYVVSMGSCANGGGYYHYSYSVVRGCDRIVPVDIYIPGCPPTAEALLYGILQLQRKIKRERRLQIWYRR
T1 sequence (P03886 whole entry): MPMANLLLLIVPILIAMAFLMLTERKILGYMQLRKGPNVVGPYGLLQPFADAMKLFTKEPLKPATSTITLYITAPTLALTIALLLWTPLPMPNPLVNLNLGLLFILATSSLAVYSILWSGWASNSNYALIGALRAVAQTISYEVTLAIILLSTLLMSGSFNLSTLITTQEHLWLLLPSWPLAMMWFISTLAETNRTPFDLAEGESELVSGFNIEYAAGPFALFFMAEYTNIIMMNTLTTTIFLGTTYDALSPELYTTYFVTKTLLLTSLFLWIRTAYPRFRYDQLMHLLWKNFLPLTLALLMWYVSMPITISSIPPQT

complex I (bovine heart) = biological target: T2, complex I (bovine heart) (Bos taurus, UniProt P03887+P17694+P42026); test: as above; assay type: biochemical; settings: 120 uM NADH, 20 uM oxidized cytochrome c, pH 7.5, 37 °C; Q-site (ubiquinone reduction site), no effect at NADH site
T2 construct: gene NDUFS2; native respiratory complex I (whole multi-subunit complex)
T2 sequence (P17694 34-463): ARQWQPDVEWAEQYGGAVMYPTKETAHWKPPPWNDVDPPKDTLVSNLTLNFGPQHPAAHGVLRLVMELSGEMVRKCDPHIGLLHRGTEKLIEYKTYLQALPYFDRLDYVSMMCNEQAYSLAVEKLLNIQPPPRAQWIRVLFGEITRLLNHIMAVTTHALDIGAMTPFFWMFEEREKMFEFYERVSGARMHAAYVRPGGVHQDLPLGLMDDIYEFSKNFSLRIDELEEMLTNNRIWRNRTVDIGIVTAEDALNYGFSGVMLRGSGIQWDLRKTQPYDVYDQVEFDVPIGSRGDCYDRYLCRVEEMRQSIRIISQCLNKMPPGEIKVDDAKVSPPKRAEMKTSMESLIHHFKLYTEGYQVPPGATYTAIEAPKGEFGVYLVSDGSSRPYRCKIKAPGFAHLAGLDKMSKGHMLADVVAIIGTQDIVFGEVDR
T2 sequence (P42026 38-216): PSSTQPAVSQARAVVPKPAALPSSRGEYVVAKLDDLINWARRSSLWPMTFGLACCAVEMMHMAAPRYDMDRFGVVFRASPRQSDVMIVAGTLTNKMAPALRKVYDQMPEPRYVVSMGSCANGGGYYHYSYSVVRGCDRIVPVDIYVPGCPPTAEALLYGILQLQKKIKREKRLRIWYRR
T2 sequence (P03887 whole entry): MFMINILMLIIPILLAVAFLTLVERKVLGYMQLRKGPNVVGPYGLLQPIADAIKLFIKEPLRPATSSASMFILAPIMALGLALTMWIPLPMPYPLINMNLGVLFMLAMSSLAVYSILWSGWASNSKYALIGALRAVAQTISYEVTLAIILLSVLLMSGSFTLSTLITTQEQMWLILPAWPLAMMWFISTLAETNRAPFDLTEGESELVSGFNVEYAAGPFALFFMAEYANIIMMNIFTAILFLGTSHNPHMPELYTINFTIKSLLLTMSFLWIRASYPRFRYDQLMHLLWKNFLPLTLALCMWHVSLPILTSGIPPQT

Compound: C[C@@H](C(=O)Nc1ccc(Cl)cc1)[C@H]1CC[C@@H](c2ccnc3ccc(F)cc32)CC1 [BMS-986205]
- complex I activity (complex I): dose-dependent decrease of complex I activity in mitochondria from KRAS^G12V/MYC, HEK293T cells and bovine heart
- complex I activity (complex I (bovine heart)): dose-dependent decrease of complex I activity in mitochondria from KRAS^G12V/MYC, HEK293T cells and bovine heart
